This note sets out measurements from US20070004634A1 (Novo Nordisk A/S, priority 1998, published 2007).

The subject of test [1] is free fat cells (adipocytes). Kind of test: Adipocyte / free fat cell (FFC) assay, 3H glucose incorporation into lipid.
Test [2] has as its target T1, human insulin receptor (HIR) (Homo sapiens, UniProt P06213).
T1 construct: made in house
Kind of test: Insulin receptor binding, competition with 125I-labeled insulin (HIR Kd). The following applies: MBP-fusion or recombinant peptide as listed.

The target of test [3] is T2, soluble human insulin receptor-immunoglobulin heavy chain chimera (sIR-Fc) (Homo sapiens, UniProt P06213).
T2 construct: replacing the transmembrane domain and the intracellular domain of IR with constant domains from immunoglobulin Fc or λ subunits; made in house; host or cells: human embryonic kidney 293 cells (Bass et al.)
The test is described as follows: Fluorescence polarization, competition with FITC-RP9 for sIR-Fc. The format is binding. The following applies: higher values indicated higher affinity for IR than IGF-1R. On the technique in general: In fluorescence polarisation assays a small probe gives low polarisation when free and higher when bound to something large.

In test [4] the test system is FDC-P2 cells expressing the IL-3 and human IGF-1R receptors. The test is described as follows: IGF-1 proliferation assay in FDC-P2 cells, agonist format. The following applies: FDC-P2 cells, agonist format; for EC50: read-out: nM ED50 Growth.
Setting [5] is: FFC assay potency grade, 0, + to ++++++, −.
The mark [6] stands for this setting: free fat cell assay potency class, Table 7.

The term Kd denotes the constant that tells how readily two partners part at equilibrium.

Positions of bridges follow the written chain, without caps; N, C: chain ends. Residues, ends and D or L forms follow the SMILES beside them. No end group written: not given here. A value given as a limit tells only on which side of the number the result lay.

T1 sequence (P06213 28-758 limits assumed): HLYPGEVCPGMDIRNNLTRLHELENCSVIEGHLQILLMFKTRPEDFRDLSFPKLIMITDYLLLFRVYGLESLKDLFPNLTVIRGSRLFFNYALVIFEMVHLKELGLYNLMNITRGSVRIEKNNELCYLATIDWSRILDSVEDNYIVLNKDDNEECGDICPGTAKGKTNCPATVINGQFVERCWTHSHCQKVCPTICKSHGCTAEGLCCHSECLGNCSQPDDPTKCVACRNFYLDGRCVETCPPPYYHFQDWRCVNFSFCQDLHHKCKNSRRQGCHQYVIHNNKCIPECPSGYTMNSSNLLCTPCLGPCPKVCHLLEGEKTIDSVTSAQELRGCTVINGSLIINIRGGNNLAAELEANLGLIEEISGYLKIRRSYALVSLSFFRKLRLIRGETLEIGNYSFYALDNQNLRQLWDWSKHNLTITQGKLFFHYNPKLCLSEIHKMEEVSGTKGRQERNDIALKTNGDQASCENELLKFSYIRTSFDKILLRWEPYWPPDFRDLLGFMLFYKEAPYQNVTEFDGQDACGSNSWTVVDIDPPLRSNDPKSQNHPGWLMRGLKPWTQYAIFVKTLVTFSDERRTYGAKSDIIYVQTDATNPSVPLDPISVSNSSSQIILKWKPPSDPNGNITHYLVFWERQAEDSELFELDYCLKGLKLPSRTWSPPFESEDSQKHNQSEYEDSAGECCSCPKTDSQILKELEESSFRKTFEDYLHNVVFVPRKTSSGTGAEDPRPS
T1 sequence (P06213 763-1382 limits assumed): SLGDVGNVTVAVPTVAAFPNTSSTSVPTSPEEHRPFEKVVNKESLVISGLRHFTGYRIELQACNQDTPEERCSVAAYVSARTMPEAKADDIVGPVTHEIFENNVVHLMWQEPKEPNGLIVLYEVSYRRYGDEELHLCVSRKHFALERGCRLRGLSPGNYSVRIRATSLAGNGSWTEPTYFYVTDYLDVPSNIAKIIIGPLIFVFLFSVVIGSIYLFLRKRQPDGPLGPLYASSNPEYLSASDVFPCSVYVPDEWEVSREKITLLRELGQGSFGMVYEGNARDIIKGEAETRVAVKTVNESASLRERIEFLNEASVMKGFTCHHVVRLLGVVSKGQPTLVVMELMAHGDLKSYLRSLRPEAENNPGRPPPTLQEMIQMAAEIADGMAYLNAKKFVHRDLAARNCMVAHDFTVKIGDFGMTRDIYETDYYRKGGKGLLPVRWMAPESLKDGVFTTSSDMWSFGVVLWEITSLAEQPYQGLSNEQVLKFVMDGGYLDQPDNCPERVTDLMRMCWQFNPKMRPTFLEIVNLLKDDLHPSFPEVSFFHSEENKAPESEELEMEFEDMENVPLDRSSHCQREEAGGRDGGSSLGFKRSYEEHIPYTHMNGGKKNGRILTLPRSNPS
T2 sequence (P06213 28-758 limits assumed, stated change not applied): as the sequence (P06213 28-758 limits assumed) above
T2 sequence (P06213 763-956 limits assumed, stated change not applied): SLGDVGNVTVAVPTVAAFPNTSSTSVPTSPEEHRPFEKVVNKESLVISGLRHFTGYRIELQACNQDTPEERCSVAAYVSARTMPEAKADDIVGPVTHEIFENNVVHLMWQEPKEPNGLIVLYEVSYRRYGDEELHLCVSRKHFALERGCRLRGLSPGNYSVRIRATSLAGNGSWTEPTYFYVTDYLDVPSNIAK

For the compound `CC(C)[C@H](NC(=O)[C@H](Cc1ccccc1)NC(=O)[C@H](Cc1c[nH]c2ccccc12)NC(=O)[C@H](CC(=O)O)NC(=O)[C@H](Cc1ccc(O)cc1)NC(=O)[C@H](Cc1ccccc1)NC(=O)[C@H](CC(N)=O)NC(=O)[C@H](CCC(=O)O)NC(=O)[C@H](Cc1c[nH]cn1)NC(=O)[C@@H](N)Cc1ccccc1)C(=O)N[C@@H](CCCNC(=N)N)C(=O)N[C@@H](CCC(N)=O)C(=O)N[C@H](C(=O)N[C@@H](CO)C(=O)N[C@@H](CCCCN)C(=O)N[C@@H](CCCCN)C(=O)NCCCC[C@H](NC(=O)[C@H](CCCCN)NC(=O)[C@H](CCCCN)NC(=O)[C@H](CO)NC(=O)[C@@H](NC(=O)[C@H](CCC(N)=O)NC(=O)[C@H](CCCNC(=N)N)NC(=O)[C@@H](NC(=O)[C@H](Cc1ccccc1)NC(=O)[C@H](Cc1c[nH]c2ccccc12)NC(=O)[C@H](CC(=O)O)NC(=O)[C@H](Cc1ccc(O)cc1)NC(=O)[C@H](Cc1ccccc1)NC(=O)[C@H](CC(N)=O)NC(=O)[C@H](CCC(=O)O)NC(=O)[C@H](Cc1c[nH]cn1)NC(=O)[C@@H](N)Cc1ccccc1)C(C)C)C(C)C)C(=O)O)C(C)C` [Peptide S145], the FFC result in test [1] (setting [5]) is given as “++”.

For `CC(C)[C@H](NC(=O)[C@H](Cc1ccccc1)NC(=O)[C@H](Cc1c[nH]c2ccccc12)NC(=O)[C@H](CC(=O)O)NC(=O)[C@H](Cc1ccc(O)cc1)NC(=O)[C@H](Cc1ccccc1)NC(=O)[C@H](CC(N)=O)NC(=O)[C@H](CCC(=O)O)NC(=O)[C@H](Cc1c[nH]cn1)NC(=O)[C@H](Cc1ccccc1)NC(=O)[C@@H](N)CNC(=O)CON=CCCCCC=NOCC(=O)NC[C@H](N)C(=O)N[C@@H](Cc1ccccc1)C(=O)N[C@@H](Cc1c[nH]cn1)C(=O)N[C@@H](CCC(=O)O)C(=O)N[C@@H](CC(N)=O)C(=O)N[C@@H](Cc1ccccc1)C(=O)N[C@@H](Cc1ccc(O)cc1)C(=O)N[C@@H](CC(=O)O)C(=O)N[C@@H](Cc1c[nH]c2ccccc12)C(=O)N[C@@H](Cc1ccccc1)C(=O)N[C@H](C(=O)N[C@@H](CCCNC(=N)N)C(=O)N[C@@H](CCC(N)=O)C(=O)N[C@H](C(=O)N[C@@H](CO)C(=O)N[C@@H](CCCCN)C(=O)N[C@@H](CCCCN)C(N)=O)C(C)C)C(C)C)C(=O)N[C@@H](CCCNC(=N)N)C(=O)N[C@@H](CCC(N)=O)C(=O)N[C@H](C(=O)N[C@@H](CO)C(=O)N[C@@H](CCCCN)C(=O)N[C@@H](CCCCN)C(N)=O)C(C)C` [Peptide S169], the FFC result in test [1] (setting [5]) is “++”.

Take `CC(C)[C@H](NC(=O)[C@H](Cc1ccccc1)NC(=O)[C@H](Cc1c[nH]c2ccccc12)NC(=O)[C@H](CC(=O)O)NC(=O)[C@H](Cc1ccc(O)cc1)NC(=O)[C@H](Cc1ccccc1)NC(=O)[C@H](CC(N)=O)NC(=O)[C@H](CCC(=O)O)NC(=O)[C@H](Cc1c[nH]cn1)NC(=O)[C@H](Cc1ccccc1)NC(=O)[C@@H](N)CNC(=O)CON=CCCCCCCC=NOCC(=O)NC[C@H](N)C(=O)N[C@@H](Cc1ccccc1)C(=O)N[C@@H](Cc1c[nH]cn1)C(=O)N[C@@H](CCC(=O)O)C(=O)N[C@@H](CC(N)=O)C(=O)N[C@@H](Cc1ccccc1)C(=O)N[C@@H](Cc1ccc(O)cc1)C(=O)N[C@@H](CC(=O)O)C(=O)N[C@@H](Cc1c[nH]c2ccccc12)C(=O)N[C@@H](Cc1ccccc1)C(=O)N[C@H](C(=O)N[C@@H](CCCNC(=N)N)C(=O)N[C@@H](CCC(N)=O)C(=O)N[C@H](C(=O)N[C@@H](CO)C(=O)N[C@@H](CCCCN)C(=O)N[C@@H](CCCCN)C(N)=O)C(C)C)C(C)C)C(=O)N[C@@H](CCCNC(=N)N)C(=O)N[C@@H](CCC(N)=O)C(=O)N[C@H](C(=O)N[C@@H](CO)C(=O)N[C@@H](CCCCN)C(=O)N[C@@H](CCCCN)C(N)=O)C(C)C` [Peptide S172]: in test [1] (setting [5]), the FFC result was “+++”.

For `CC(C)[C@H](NC(=O)[C@H](Cc1ccccc1)NC(=O)[C@H](Cc1c[nH]c2ccccc12)NC(=O)[C@H](CC(=O)O)NC(=O)[C@H](Cc1ccc(O)cc1)NC(=O)[C@H](Cc1ccccc1)NC(=O)[C@H](CC(N)=O)NC(=O)[C@H](CCC(=O)O)NC(=O)[C@H](Cc1c[nH]cn1)NC(=O)[C@H](Cc1ccccc1)NC(=O)CNC(=O)CNC(=O)[C@@H](N)CSSC[C@H](N)C(=O)NCC(=O)NCC(=O)N[C@@H](Cc1ccccc1)C(=O)N[C@@H](Cc1c[nH]cn1)C(=O)N[C@@H](CCC(=O)O)C(=O)N[C@@H](CC(N)=O)C(=O)N[C@@H](Cc1ccccc1)C(=O)N[C@@H](Cc1ccc(O)cc1)C(=O)N[C@@H](CC(=O)O)C(=O)N[C@@H](Cc1c[nH]c2ccccc12)C(=O)N[C@@H](Cc1ccccc1)C(=O)N[C@H](C(=O)N[C@@H](CCCNC(=N)N)C(=O)N[C@@H](CCC(N)=O)C(=O)N[C@H](C(=O)N[C@@H](CO)C(=O)N[C@@H](CCCCN)C(=O)N[C@@H](CCCCN)C(=O)O)C(C)C)C(C)C)C(=O)N[C@@H](CCCNC(=N)N)C(=O)N[C@@H](CCC(N)=O)C(=O)N[C@H](C(=O)N[C@@H](CO)C(=O)N[C@@H](CCCCN)C(=O)N[C@@H](CCCCN)C(=O)O)C(C)C` [Peptide S228], the FFC entry in test [1] (setting [5]) was “++”.

For the compound `CC[C@@H](C)[C@@H](NC(=O)[C@H](CCC(=O)O)NC(=O)[C@H](CC(=O)O)NC(=O)[C@H](Cc1ccccc1)NC(=O)[C@H](Cc1c[nH]c2ccccc12)NC(=O)[C@H](CCC(=O)O)NC(=O)[C@H](Cc1ccc(O)cc1)NC(=O)[C@H](Cc1ccccc1)NC(=O)[C@H](CCC(=O)O)NC(=O)[C@H](CCCCN)NC(=O)[C@H](CC(N)=O)NC(=O)[C@H](CC(N)=O)NC(=O)[C@@H](N)CCCCN)C(=O)NCC(=O)N[C@H](CCC(N)=O)C(=O)O` [Peptide S320] (HELM PEPTIDE1{K.N.N.K.E.F.Y.E.W.F.D.E.[dI].G.[dQ]}$$$$V2.0; N-terminus and C-terminus assumed), the FFC in test [1] (setting [5]) amounted to 0.

Take (ESFYDWFERQLGK)2-23 [Peptide S415]: the “activity in the free fat cell (FFC) assay / at IR, in words” value in test [1] was “highly potent”.

Turning to “DYKDDDDKVRVDWLQRNANFYAWFVAELGGGSGGSGGSGGSGRVDWLQRNANFYDWFVAELGAAAGAPVPYPDPLEPRAA [RB509]”, the Kd in test [2] stood at 55 nM.

Turning to ESFYDWFERQ [Peptide S400], the FFC in test [1] (Table 6, free fat cell assay) was 0; in test [1] (setting [6]) it was 0.

With FHENFYDWFVQRVSKK [H2C (D117)], the “Bndg Ratio IGF-1R/IR” value in test [3] is 9.

Consider GSLDESFYDWFER [Peptide S396], for which the FFC in test [1] (Table 6, free fat cell assay) was determined as 0; in test [1] (setting [6]), 0.

In the case of GSLDESFYDWFERQ [Peptide S394], the “activity in the free fat cell (FFC) assay / at IR, in words” value in test [1] is on record as “potency similar to full-length RP9 monomer peptides”. In addition, the FFC entry in test [1] (setting [6]) is reported as “+”.

On to GSLDESFYDWFERQLG [Peptide S386], for which the FFC result in test [1] (setting [5]) is “+”.

Consider “MADYKDDDDKGSLDESFYDWFERQLGKKGGSGGSGSLDESFYDWFERQLGKKAAAGAPVPYPDPLEPRPG [RB521]”, for which, in test [2], the Kd was determined as 44 nM.

With “MADYKDDDDKWLDQEWAWVQCEVYGRGCPSGGSGGSGSLDESFYDWFERQLGKKAAA(ETAG)PG [Peptide 539]”, the “activity in the free fat cell (FFC) assay / at IR, in words” value in test [1] is “full agonist”.

MGSLDESFYDWFERQLGEEEGGDHHHHHHPG [RB569]: the Kd in test [2] is 210 nM.

“MQNDDGSLDESFYDWFERQLGEEEGGDHHHHHHPG [RB570]”: the Kd in test [2] is 25 nM.

Take RB596 (MQNDDGSLDESFYDWFERQLGHHHHHHPG): the FF in test [1] (fat cell potency, symbols ++ and − not defined in the table) was 9.4*10^−8.

Regarding “WLDQERAWLWCEISGRGCLSGGSGGSGGSGGSGSLDESFYDWFERQLGKK (disulfide 11-18 (inferred)) [D815-RP9 12 aa]”, in test [4], the “Max Action” value was 100% and the EC50 stood at 10000 nM.

For the compound “WLDQERAWLWCEISGRGCLSGGSGGSGSLDESFYDWFERQLGKK (disulfide 11-18 (inferred)) [D815-RP9 6 aa]”, in test [4], the “Max Action” value is over 50% and the EC50 turned out to be 50 nM.
